Measured values taken from patent publication US20200078307A1, “POROUS SILICA PARTICLES FOR USE IN A COMPRESSED PHARMACEUTICAL DOSAGE FORM” (Nanologica AB, priority 2018, published 2020).
In brackets after ≈: the same amount, converted by molar mass. Like-named read-outs stand apart in the source and are kept apart here.

How the values were obtained:
[1] = cited from earlier work
[2] = Release kinetics of melatonin, USP Apparatus 2 dissolution testing; assay type: physicochemical; settings: after 20 minutes; 500 ml buffer pH 6.8, 50 rpm, 37° C., 5 mg melatonin
Procedure: The release kinetics of melatonin was monitored using a USP Apparatus 2 dissolution testing system. The release was performed in 500 ml buffer at pH 6.8 (reflecting the pH in the oral cavity, typically in the range of pH 6.7 to 7.3) at 50 rpm stirring rate and 37° C. The dose in the dissolution tests was equivalent to 5 mg of melatonin. Melatonin was bought from PureBulk, Inc. USA. The dosage form with melatonin was compared to reference product from CVS Health, USA using the technology mentioned in U.S. Pat. No. 9,381,190 Other ingredients in the formulation include Microcrystalline cellulose (MCC) and Low-Substituted Hydroxypropyl Cellulose (L-HPC) Mannitol and magnesium stearate.

[3] = HPLC stability of melatonin during loading and storage; assay type: physicochemical; settings: during loading and after storage at 4° C.

| dissolution (melatonin released) [2] [%] | stability (HPLC) [3] | SMILES | solubility ([1]; in buffer at pH 6.8) [µg/mL] | solubility ([1]; in water) [µg/mL] |
| --- | --- | --- | --- | --- |
|  |  | CCN(CC)CCNC(=O)c1cc(Cl)c(N)cc1OC [metoclopramide] | 10000 (≈ 33.4 mM) | > 6000 |
| 93 | no degradation | COc1ccc2[nH]cc(CCNC(C)=O)c2c1 [melatonin] |  |  |
